Results reported in patent publication US5608084A, “Lactones with antioxidising and hypolipidaemic activity useful in the therapy of the atherosclerosis” (priority 1994, dated 1997).
Read-outs that look alike come from different tables or passages of the source.

What was measured:
[1] = system: LDL; experiment: Antioxidant activity: latency period of copper-induced LDL oxidation (TBARS method); assay type: biochemical, human; conditions: for Latency period: LDL oxidized with 5 μM cupric sulfate at 37° C.; for concentration giving a comparable prolongation of the latency period, relative to probucol (times lower): compared with probucol; for antioxidant activity compared with probucol: latency period
From the text: The determination of the melting point has been carried out by means of a capillary melting point apparatus Electrothermal, without any correction. The I.R. spectrum has been obtained by means of a Perkin-Elmer rood. 963/G spectrophotometer generally, when not otherwise specified, preparing the specimen in potassium bromide and recording the spectrum between […]. The ^1 H-NMR spectrum has been recorded at room temperature with a 200 MHz Varian Gemini spectrometer, in the solvents cited, by using tetramethylsilane as internal standard; the resonances of the signals have been expressed in p.p.m.. The ^13 C-NMR spectrum has been carried out at 50.3 MHz with a Varian Gemini 200 spectrometer by using tetramethylsilane as internal standard and as solvents those described in the experimental section. The mass spectrum has been recorded by using a VG 7070E mass spectrometer, at a 70 eV ionization voltage and with a 6 Kvolt acceleration voltage. The chromatographies on silica gel have been carried out by using 60 F254 silica gel ([…]--Merck) with the eluents cited in the examples, according to the method described by Clark Still W. et al. in J. Org. Chem., 43, 2923, (1978). The pharmacological activity of the lactones of formula I object of the present invention has been determined by means of a series of in vitro tests considered predictive of the antioxidant and hypolipidaemic properties. The antioxidant activity has been evaluated through the capability of some lactones of formula I to prevent and/or delay the oxidative modification of the lipoproteins (LDL), caused by a chemical method by incubating native LDL with cupric ions, according to the method described by Steinbrecher U. P. in J. Biol. Chem., 262, 3603-3608, (1987). The evaluation of the oxidation degree of the LDL through the monitoring of the concentration of aldehydes derived from the degradation of the lipidic peroxides and the observation of the modifications of the B-100 apolipoprotein represent the used experimental approach. The antioxidant activity of the lactones has been expressed in terms of duration of the latency period that represents a parameter of the resistance to the oxidation of the LDL. The LDL have been isolated from the human plasma obtained from blood collected, in the presence of EDTA, from healty volunteers fasting from 8 hours according to the method described by Havel H. in J. Clin. Invest., 34, 1345-1353, (1955). The solution, dialyzed in Visking-Serva dialysis tubes at 4° C. for 72 hours in phosphate buffer (PBS) added with EDTA (0.24 mM), has been filtered through a membrane with 0.45μ porosity (Millex HV Filters) and the proteic concentration has been determined according to the method described by Lowry O. et al. in J. Biol. Chem., 193, 265-275, (1951). The solution has been diluted with PBS-EDTA at a concentration of 500 μg protein/ml and the obtained LDL have been incubated at 42° C. for 45 minutes in presence of the lactones solubilized in ethanol (1.7 μl/ml LDL). At the end of the incubation the solutions have been placed on ice for 45 minutes and dialyzed at 4° C. for 36 hours in PBS. The oxidation of the LDL has been carried out with 5 μM cupric sulfate at 37° C. and stopped at the experimental times by cooling at 4° C. and adding 0.24 mM of EDTA. The solutions of LDL have been kept at 4° C. and sheltered from light during the experimental procedure. The oxidation degree of the LDL has been checked by spectrophotometric determination (λ=535 nm--Perkin Elmer spectrophotometer mod. Lambda 1) of the content of the aldehydes of degradation reactive to the thiobarbituric acid using as standard malondialdehyde (MDA), according to the TBARS method, described in Methods in Enzymology, vol. 52, (1978).
FIGS. 1A-1C show the results of spectrophotometric readings expressed as ng of MDA/mg LDL protein. […]

[2] = system: HepG2; experiment: Incorporation of 14C-acetate in the lipidic classes in HepG2 cells (hypolipidaemic activity); assay type: cell-based, human; conditions: for Incorporation of 14C-acetate: Cholesterol / Incorporation of 14C-acetate: Esters of Cholesterol / Incorporation of 14C-acetate: Fatty acids / Incorporation of 14C-acetate: Phospholipids / Incorporation of 14C-acetate: Triglycerides: per culture plate; for inhibition at 1 µM / inhibition at 10 µM: Homo sapiens, HepG2; for interference with the synthesis of cholesterol: compared with gemfibrozil and probucol; for influence on the synthesis of the fatty acids and of the phospholipids: compared with probucol and gemfibrozil; for activity as regards the synthesis of the esters of the cholesterol: summary of Table 4
Experimental: The hypolipidaemic activity of some lactones of general formula I has been evaluated in vitro by testing their influence on the synthesis of the cell lipids like cholesterol, fatty acids, triglycerides, phospholipids and esters of the cholesterol, described by Barnhard J. W. in Amer. J. Cardiol., 62, 52B-56B, (1988).
The synthesis of the lipids has been studied by incubating cells coming from a human hepatocarcinoma (HepG2-American Type Culture Collection) in presence of ^14 C-acetate (Amersham) and by measuring the incorporation of the radioactive precursor in the main lipidic classes by means of chromatographic separation on silica gel (Merck F254), according to the method described by Skipski V. P. et al. in Biochem. Biophys. Acta, 106, 386-396, (1965) and by means of scintillographic dosage with β-counter Beckman scintillator, according to the method reported by Gherardi E. and Calandra S. in Lipids, 15, 108-112, (1980).
The data reported in tables 4 and 5 refer to the incorporation of ^14 C-acetate in the various lipidic classes, expressed as radioactivity in count per minute (cpm) for culture plate, for some lactones, in comparison with the probucol and the gemfibrozil, used as positive controls and with the solvent ethanol, used as negative control.
The percents in brackets express the lowering of the ^14 C-acetate in the various lipidic classes referred to the control, i.e. to the physiological solution. […] The confluence cells have been exposed to the products tested for 24 hours; at the end of the incubation the monolayer has been solubilized and the optical density of the lysate at λ260 nm has been measured. The value of the absorbance is direct function of the amount of the macromolecules present and therefore indirectly of the number of the cells.

[3] = 1 μM, read-out: Incorporation of 14C-acetate: Cholesterol, percent referred to physiological solution
[4] = 1 μM, read-out: Incorporation of 14C-acetate: Esters of Cholesterol, percent referred to physiological solution
[5] = 1 μM, read-out: Incorporation of 14C-acetate: Fatty acids, percent referred to physiological solution
[6] = 1 μM, read-out: Incorporation of 14C-acetate: Phospholipids, percent referred to physiological solution
[7] = 1 μM, read-out: Incorporation of 14C-acetate: Triglycerides, percent referred to physiological solution
[8] = 10 μM, read-out: Incorporation of 14C-acetate: Cholesterol, percent referred to physiological solution
[9] = 10 μM, read-out: Incorporation of 14C-acetate: Esters of Cholesterol, percent referred to physiological solution
[10] = 10 μM, read-out: Incorporation of 14C-acetate: Fatty acids, percent referred to physiological solution
[11] = 10 μM, read-out: Incorporation of 14C-acetate: Phospholipids, percent referred to physiological solution
[12] = 10 μM, read-out: Incorporation of 14C-acetate: Triglycerides, percent referred to physiological solution

Row | Structure (SMILES) | Latency period ([1]; 10 μM) [min] | Incorporation of 14C-acetate: Cholesterol ([2]; 1 μM) [cpm] | Incorporation of 14C-acetate: Esters of Cholesterol ([2]; 1 μM) [cpm] | Incorporation of 14C-acetate: Fatty acids ([2]; 1 μM) [cpm] | Incorporation of 14C-acetate: Phospholipids ([2]; 1 μM) [cpm] | Incorporation of 14C-acetate: Triglycerides ([2]; 1 μM) [cpm] | Incorporation of 14C-acetate: Cholesterol ([2]; 10 μM) [cpm] | Incorporation of 14C-acetate: Esters of Cholesterol ([2]; 10 μM) [cpm] | Incorporation of 14C-acetate: Fatty acids ([2]; 10 μM) [cpm] | Incorporation of 14C-acetate: Phospholipids ([2]; 10 μM) [cpm] | Incorporation of 14C-acetate: Triglycerides ([2]; 10 μM) [cpm] | inhibition at 1 µM [2, 3] [%] | inhibition at 1 µM [2, 4] [%] | inhibition at 1 µM [2, 5] [%] | inhibition at 1 µM [2, 6] [%] | inhibition at 1 µM [2, 7] [%] | inhibition at 10 µM [2, 8] [%] | inhibition at 10 µM [2, 9] [%] | inhibition at 10 µM [2, 10] [%] | inhibition at 10 µM [2, 11] [%] | further results
1 | Cc1c(C)c2c(c(C)c1O)CCC(C)OC(=O)C(C)(C)CCCO2 (centres unmarked) [Example 3, 6,6,9,13,15,16-Hexamethyl-14-hydroxy-2,8-dioxabicyclo[10.4.0]hexadec-12,14,16-trien-7-one] | > 180 | 23364 | 1347 | 473 | 181053 | 109681 | 19034 | 1107 | 368 | 195274 | 104271 | 26 | 67 | 29 | 27 | 1 | 40 | 73 | 45 | 22 | Latency period ([1]; 1 μM): 73 min; Latency period ([1]; 5 μM): 120 min; concentration giving a comparable prolongation of the latency period, relative to probucol (times lower) [1]: 10 times; antioxidant activity compared with probucol [1]: far higher than that of probucol; influence on the synthesis of the triglycerides [2]: practically absent; inhibition at 10 µM [2, 12]: 4%; interference with the synthesis of cholesterol [2]: comparable to that of gemfibrozil and lower than that of the probucol; influence on the synthesis of the fatty acids and of the phospholipids [2]: practically show the same influence; activity as regards the synthesis of the esters of the cholesterol [2]: 60-75%
2 | CCC1CCc2c(C)c(O)c(C)c(C)c2OCCCC(C)(C)C(=O)O1 (centres unmarked) [Example 6, 9-Ethyl-14-hydroxy-6,6,13,15,16-pentamethyl-2,8-dioxabicyclo[10.4.0]hexadec-12,14,16-trien-7-one] | > 180 | 23597 | 1098 | 386 | 160997 | 107497 | 17458 | 1148 | 332 | 177323 | 110154 | 25 | 73 | 42 | 35 | 1 | 45 | 72 | 50 | 29 | Latency period ([1]; 1 μM): 95 min; Latency period ([1]; 5 μM): > 180 min; concentration giving a comparable prolongation of the latency period, relative to probucol (times lower) [1]: 10 times; antioxidant activity compared with probucol [1]: far higher than that of probucol; influence on the synthesis of the triglycerides [2]: practically absent; inhibition at 10 µM [2, 12]: -1%; interference with the synthesis of cholesterol [2]: comparable to that of gemfibrozil and lower than that of the probucol; influence on the synthesis of the fatty acids and of the phospholipids [2]: practically show the same influence; activity as regards the synthesis of the esters of the cholesterol [2]: 60-75%
3 | CC(C)(Sc1cc(C(C)(C)C)c(O)c(C(C)(C)C)c1)Sc1cc(C(C)(C)C)c(O)c(C(C)(C)C)c1 [Probucol, reference compound] | 82 | 14360 | 1887 | 429 | 173426 | 100202 | 11389 | 2635 | 394 | 173329 | 105097 | 55 | 54 | 36 | 31 | 8 | 64 | 35 | 42 | 31 | inhibition at 10 µM [2, 12]: 3%; activity as regards the synthesis of the esters of the cholesterol [2]: 35-45%
